Test results: patent US20170328922A1, “METHODS AND PRODUCTS FOR LABELLING LIPIDS” (UNIVERSITY OF SOUTH AUSTRALIA, priority 2014, published 2017)

Assays:
[1] = Rhenium molecular probe-lipid overlay (dot blot); type: binding; parameters: key to interaction with Sphingosine (dot blot): ✓ indicates a positive interaction; x indicates no interaction; conditions: for interaction with Sphingosine (dot blot): 10 μM probe, 50 μM lipid on PVDF membrane; for affinity towards sphingosine, in words: FIG. 7 / FIG. 8
Experimental: (§1) The experimental protocol probe-lipid overlay was as follows: 50 μM of each lipids was loaded on to PVDF membranes (Perkin Elmer, USA), which were then incubated with molecular probes. PhenCyano and PhenPyridyl were assessed against eleven lipids including; sphingomyelin (Cat # S0756, Sigma Aldrich, USA), sphingosine (Cat # S7049; Sigma Aldrich, USA), L-phosphatidylethanolamine (Cat # P7943, Sigma Aldrich, USA), monosialodanglioside (GM1; Cat # G7641, Sigma Aldrich, USA), oleoly-L-?-lysophosphatidic acid (Cat # L7260, Sigma Aldrich, USA), palmitic acid (Cat # P5917, Sigma Aldrich, USA), sphingomyelin (Cat # S0756, Sigma Aldrich, USA), sphingosine (Cat # S7049; Sigma Aldrich, USA), L-?-phosphatidylethanolamine (Cat # P7943, Sigma Aldrich, USA), monosialodanglioside (GM1; Cat # G7641, Sigma Aldrich, USA), progesterone (Cat #102722, MP Biomedical, USA), ceramide (Cat # C2137; Sigma Aldrich, USA), triacylglycerol mix C2-C10 (Cat #17810, Sigma Aldrich, USA) and cholesteryl acetate (Cat #151114; Sigma Aldrich, USA).
(§2) All other molecular probes were assessed against a panel of six lipids including; sphingomyelin (Cat # S0756, Sigma Aldrich, USA), sphingosine (Cat # S7049; Sigma Aldrich, USA), L-?-phosphatidylethanolamine (Cat # P7943, Sigma Aldrich, USA), monosialodanglioside (GM1; Cat # G7641, Sigma Aldrich, USA), sphingomyelin (Cat # S0756, Sigma Aldrich, USA), sphingosine (Cat # S7049; Sigma Aldrich, USA), L-?-phosphatidylethanolamine (Cat # P7943, Sigma Aldrich, USA), monosialodanglioside (GM1; Cat # G7641, Sigma Aldrich, USA) and triacylglycerol mix C2-C10 (Cat #17810, Sigma Aldrich, USA).
(§3) Lipids were dissolved in ethanol, methanol or isopropanol for loading depending on solubility. Following lipid loading, membranes were left to dry for 20-30 minutes, then they were washed for 10 minutes in cold 10% ethanol, before they were incubated with 10 μM solution of each Rhenium molecular probe in cold 10% ethanol for one hour. Membranes were than washed four times for 10 minutes in cold 10% ethanol prior to imaging. Imaging was performed on an Image Quant Las 4000 (GE, Sweden) luminescent image analyser, with the Rhenium molecular probe being detected by excitation at 460 nm using an epi-blue light source, and detected using an 575 nm ethidium bromide filter.

[2] = Rhenium molecular probe-lipid overlay (dot blot); type: binding; parameters: key to interaction with Triglycerides (dot blot): ✓ indicates a positive interaction; x indicates no interaction; conditions: for interaction with Triglycerides (dot blot): 10 μM probe, 50 μM lipid on PVDF membrane; for interaction with triglycerides, in words: FIG. 7 / FIG. 8
Experimental: as §1, §2, §3

[3] = Rhenium molecular probe-lipid overlay (dot blot); type: binding; parameters: key to interaction with GM1 (dot blot): ✓ indicates a positive interaction; x indicates no interaction; conditions: for interaction with GM1 (dot blot): 10 μM probe, 50 μM lipid on PVDF membrane; for affinity towards monosialotetrahexosylganglioside (GM1), in words: FIG. 7 / FIG. 8
Experimental: as §1, §2, §3

[4] = Rhenium molecular probe-lipid overlay (dot blot); type: binding; parameters: key to interaction with Cholestrol (dot blot): ✓ indicates a positive interaction; x indicates no interaction; conditions: for interaction with Cholestrol (dot blot): 10 μM probe, 50 μM lipid on PVDF membrane; for affinity towards cholesterol, in words: FIG. 7 / FIG. 8
Experimental: as §1, §2, §3

[5] = Rhenium molecular probe-lipid overlay (dot blot); type: binding; parameters: key to interaction with Sphingomyline (dot blot): ✓ indicates a positive interaction; x indicates no interaction; conditions: for interaction with Sphingomyline (dot blot): 10 μM probe, 50 μM lipid on PVDF membrane; for affinity towards sphingomyelin, in words: FIG. 7 / FIG. 8
Experimental: as §1, §2, §3

[6] = Rhenium molecular probe-lipid overlay (dot blot); type: binding; parameters: key to interaction with PE (dot blot): ✓ indicates a positive interaction; x indicates no interaction; conditions: for interaction with PE (dot blot): 10 μM probe, 50 μM lipid on PVDF membrane; for affinity towards phosphatidylethanolamine (PE), in words: FIG. 7 / FIG. 8
Experimental: as §1, §2, §3

[7] = test system: Drosophila fat body cells; test: Live tissue staining with rhenium molecular probes (Examples 10, 13); type: cell-based; conditions: live samples, 10-20 μM probe
Experimental: (§4) Probes were dissolved in DMSO to obtain a stock solution with a concentration of 10 mM. Stock solutions were stored at room temperature in a dark place. Working solutions were prepared only at the time of use as the probe has reduced solubility in aqueous solutions. A Working solution was a dilution 1/1000 to 1/500 of the stock in DMSO to PBS or cell medium, and as such the percentage of DMSO used in actual cell experiments was less than 1%.
(§5) For tissues, the tissues were isolated in PBS (or other physiological media) and mounted on a coverslip. For cells, these were grown as per normal practice on coverslips.
(§6) The media was removed media and replaced with 10-20 μM solution of molecular probes in PBS (or appropriate physiological media/cell media) at a dilution of stock solution from 1/1000-1/500, for 15-30 minutes at physiologically appropriate temperature (37° C. for cell culture or 25° C. for insect larvae). […] If foetal calf serum is necessary for cell health, an increased incubation time may be necessary to obtain adequate staining.
The samples were washed for one minute in PBS. If co-staining was performed, the samples were washed in PBS for 30 seconds, before incubating with counterstain.
Tissues were mounted in optical coupling gel, such as carbomer-940 (Snowdrift farm, Tucson, USA) based gel to prevent dehydration prior to imaging and maintain tissue integrate (Rothstein, E. C., Nauman, M., Chesnick S., Balaban R. S., 2006, Multi-photon excitation microscopy in intact animals Journal of Microscopy 222, 58, 64). For cells, the coverslip was mounted in PBS for immediate imaging.
Samples were imaged immediately following staining.
Rhenium molecular probes were? excited at 800-830 nm using a two-photon pulse laser or 405 steady state laser and detection in the range of 490-670 nm, with an emission maxima at around 570.
Micrographs of 3T3 L1, 453 cells and CHOK1 cells and Drosophila fat body tissue stained with rhenium molecular probes, PhenCyan top, PhenPyridyl bottom are shown in FIG. 10. […] Left: confocal images; Right: fluorescence microscopy images. […]

[8] = Rhenium molecular probe-lipid overlay (dot blot); type: binding; conditions: FIG. 7
Experimental: as §1
Lipids were dissolved in ethanol, methanol or isopropanol for loading depending on solubility. […] Imaging was performed on an Image Quant Las 4000 (GE, Sweden) luminescent image analyser, with the Rhenium molecular probe being detected by excitation at 460 nm using an epi-blue light source, and detected using an 575 nm ethidium bromide filter.

[9] = Rhenium molecular probe-lipid overlay (dot blot); type: binding; parameters: key to interaction with Cholestryl acetate (dot blot): ✓ indicates a positive interaction; x indicates no interaction
Experimental: as §1, §3

[10] = Rhenium molecular probe-lipid overlay (dot blot); type: binding; parameters: key to interaction with Lysophosphatidic acid (dot blot): ✓ indicates a positive interaction; x indicates no interaction
Experimental: as §1, §3

[11] = Rhenium molecular probe-lipid overlay (dot blot); type: binding; conditions: FIG. 7
Experimental: as §1, §3

[12] = Rhenium molecular probe-lipid overlay (dot blot); type: binding; conditions: FIG. 7
Experimental: as §1, §3

3T3 L1 cells = test: Live cell staining with rhenium molecular probes; type: cell-based; conditions: live samples, 10-20 μM probe
Experimental: as §4, §5, §6
The samples were washed for one minute in PBS. […]
Micrographs of 3T3 L1, 453 cells and CHOK1 cells and Drosophila fat body tissue stained with rhenium molecular probes, PhenCyan top, PhenPyridyl bottom are shown in FIG. 10. […] Left: confocal images; Right: fluorescence microscopy images.

[13] = test system: Drosophila fat body tissue; test: Live staining and confocal imaging of explanted fat body tissue; type: cell-based; conditions: fixed fat body, nutrient deprivation/starvation conditions
Experimental: All stocks were maintained in standard medium at 25° C. The yeast GAL4-UAS system was used for targeted gene expression (Brand and Perrimon, 1993). Fat-body specific expression of transgenes from the UAS were driven by CG-GAL4 (Asha et al., 2003). Transgenic UAS-Atg9RNAi stocks (#34901) and UAS-TorTED stocks (#7013) were obtained from the Bloomington Drosophila Stock Centre (Indiana University, IN, USA). Atg8aGFP was driven by an endogenous promoter (Kelso et al., 2004).
Bromophenol-blue was added to the fly media and used to define different developmental time points. […] Newly formed white pupae (0 h PF), were isolated onto moist filter paper and incubated at 25° C. for either two hours (+2 h PF) or four hours (+4 h PF).
Third instar larvae at −8 h PF were removed from standard media (normally feeding at this developmental stage) and placed on filter paper either soaked in 5% (w/v) sucrose (for amino acid deprivation), or 5% (w/v) tryptone pancreatic digest of casein (BD Bioscience USA; for carbohydrate deprivation), or soaked in water (for complete starvation). Larvae were incubated for 4-5 hours prior tissue isolation and imaging.
Fat body tissue was dissected into PBS from Drosophila larvae or pupae. The fat body tissue was either incubated with 10 μM tricarbonyl phenanthrolin (4-cyanophenyltretrazolato) Rhenium (I) in PBS for 15 minutes at room temperature, or LysoTracker® green (according to manufacturer instructions; Invitrogen, USA) and then mounted in carbomer-940 (Snowdrift farm, Tucson, USA) based optical coupling gel to prevent dehydration prior to imaging (Rothstein et al., 2006). For Oil Red O staining, fat body tissue was fixed in 4% (v/v) paraformaldehyde for 20 minutes, and incubated in 1/100 Oil Red 0 for 30 minutes and then washed in PBS before mounting in 80% glycerol.
A Ziess LSM710 META NLO confocal microscope (Zeiss, Germany), supplemented with a two-photon Mai-Tai® (tunable Ti:Sapphire femtosecond pulse laser, 710-920 nm, Spectra-Physics, Australia) was used for imaging. The images were acquired using a Plan-APOCHROMAT 63×/NA1.4 oil immersion objective. The Rhenium probe was excited at 830 nm using the two-photon pulse laser and detect at 600-654 nm. LysoTracker® green was imaged by excitation at 488 nm and detected at 497-558 nm. Atg8a-GFP was imaged with the Rhenium probe by excitation at 830 nm and resolved using spectral un-mixing using the Zen software package (based on spectral figure-printing of the two components). The Rhenium probe images and co-location analysis involved at least five separate images from five independent biological replicates, and one representative image from each treatment was selected for presentation (containing a minimum of 2 cells). For image quantification, two regions of interest (ROI) were selected at random with an area of 2500 μm^2 and the number of fluorescent puncta within the area counted, to give a minimum of 10 counts per treatment group. Comparison of means was performed by ANOVA with a Tukey post hoc tested in GraphPad Prism V.6.01 (USA).

[14] = 10 μM probe, 50 μM lipid on PVDF membrane

Molecule	interaction with Sphingosine (dot blot) [1]	affinity towards sphingosine, in words [1]	interaction with Triglycerides (dot blot) [2]	interaction with triglycerides, in words [2]	interaction with GM1 (dot blot) [3]	affinity towards monosialotetrahexosylganglioside (GM1), in words [3]	interaction with Cholestrol (dot blot) [4]	affinity towards cholesterol, in words [4]	interaction with Sphingomyline (dot blot) [5]	affinity towards sphingomyelin, in words [5]	interaction with PE (dot blot) [6]	affinity towards phosphatidylethanolamine (PE), in words [6]	also measured
COC(=O)c1ccc(-c2nn[n]([Re](=[C]=O)(=[C]=O)=[C]=O)n2)cc1.c1cnc2c(c1)ccc1cccnc12 [PhenEster]	✓	varying affinity	✓	appeared to interact	✓	varying affinity	✓	varying affinity	✓	varying affinity	✓	varying affinity	–
O=[C]=[Re](=[C]=O)(=[C]=O)[n]1nnc(-c2cccnc2)n1.c1cnc2c(c1)ccc1cccnc12 [PhenPyridyl, Triscarbonyl phenanthroline (3-pyridyltetrazolato)Rhenium(I)]	–	some affinity	–	no interaction detected	✓	some affinity	–	some affinity	✓	some affinity	✓	some affinity	staining pattern in Drosophila fat body cells [7]: limited to no lipid droplet staining; interaction with fatty acid (palmitic acid), in words [8]: no interaction detected; interaction with Cholestryl acetate (dot blot) [9, 14]: x; interaction with cholesterol ester (cholesteryl acetate), in words ([9]; FIG. 7): no interaction detected; interaction with Lysophosphatidic acid (dot blot) [10, 14]: ✓; affinity towards lysophosphatidic acid, in words ([10]; FIG. 7): some affinity; affinity towards progesterone, in words [11]: some affinity; interaction with ceramide, in words [12]: no interaction detected; staining pattern in 3T3 L1 cells (3T3 L1 cells): limited to no lipid droplet staining
Cc1ccc(C)c(N=Nc2cc(C)c(N=Nc3c(O)ccc4ccccc34)cc2C)c1 [oil red, reference compound]	–	–	–	–	–	–	–	–	–	–	–	–	colocalisation of staining with Atg8a-GFP [13]: did not appear to colocalise
facial-Tricarbonyl (η^1(N2)-5- cyanophen-4′-yl tetrazolato) η^2-2,2′- bipyridine Rhenium(I) [BiphenCyano]	✓	varying affinity	x	–	✓	varying affinity	✓	varying affinity	✓	varying affinity	✓	varying affinity	–
facial-Tricarbonyl (η^1(N2)-5-(methyl bcnzoate-4′-yl tetrazolato) η^2-2,2′- bipyridine Rhenium(I) [BiphenEster]	–	varying affinity	✓	appeared to interact	✓	varying affinity	–	varying affinity	✓	varying affinity	✓	varying affinity	–
